{"source": "patent US6346530B1", "about": "“Process for the preparation of a bioavailable oral dosage form of cefuroxime axetil” (Ranbaxy Laboratories Limited, priority 1999, dated 2002)", "origin": "cited, not measured here", "settings": "background, result in words", "data": [{"compound": "CO/N=C(\\C(=O)N[C@@H]1C(=O)N2C(C(=O)OC(C)OC(C)=O)=C(COC(N)=O)CS[C@H]12)c1ccco1", "note": "(some centres unmarked) [Crystalline cefuroxime axetil, cefuroxime axetil]", "values": [{"measurement": "Bioavailability upon oral administration", "value": "does not exhibit adequate bioavailability"}]}, {"compound": "CO/N=C(\\C(=O)N[C@@H]1C(=O)N2C(C(=O)OC(C)OC(C)=O)=C(COC(N)=O)CS[C@H]12)c1ccco1", "note": "(some centres unmarked) [amorphous form of cefuroxime axetil, cefuroxime axetil]", "values": [{"measurement": "Bioavailability upon oral administration", "value": "high bioavailability"}]}]}
